How the values were obtained:
Format in all cases: in vivo
[1] = tested on: green peach aphid (Myzus persicae); assay: Myzus test (MYZUPE spray treatment); details: application rate 500 g/ha, Chinese cabbage leaf discs, after 6 days
Method: Myzus Test (MYZUPE Spray Treatment)
Solvents: 78 parts by weight of acetone
(§1) • 1.5 parts by weight of dimethylformamide Emulsifier: 0.5 part by weight of alkylaryl polyglycol ether
To produce a suitable preparation of active compound, 1 part by weight of active compound is mixed with the stated amounts of solvents and emulsifier, and the concentrate is diluted with emulsifier-containing water to the desired concentration. Discs of Chinese cabbage (Brassica pekinensis) which are infested by all stages of the green peach aphid (Myzus persicae) are sprayed with an active compound preparation of the desired concentration. After 6 days, the effect in % is determined. 100% means that all aphids have been killed; 0% means that none of the aphids have been killed.

Lucilia cuprina larva = assay: Lucilia cuprina test (LUCICU); details: application rate 100 ppm; treated horse meat; after 2 days
Method: Lucilia cuprina Test (LUCICU)
Solvent: Dimethyl sulphoxide
To produce a suitable preparation of active compound, 10 mg of active compound are mixed with 0.5 ml of dimethyl sulphoxide and the concentrate is diluted with water to the desired concentration. Containers containing horse meat treated with the active compound preparation of the desired concentration are populated with about 20 Lucilia cuprina larva.
After 2 days, the kill in % is determined. 100% means that all larva have been killed; 0% means that none of the larva have been killed.

Lolium multiflorum = assay: Herbicidal pre-emergence action; details: pre-emergence method, 320 g of a.i./ha; about 3 weeks
Description: (§2) 1. Herbicidal Pre-Emergence Action
(§3) • Seeds of monocotyledonous and dicotyledonous weed and crop plants are placed in sandy loam in wood fibre pots and covered with soil. The test compounds, formulated in the form of wettable powders (WP), are then, as aqueous suspension with a water application rate of 600 l/ha (converted), with 0.2% of wetting agent added, applied to the surface of the covering soil in various dosages. • After the treatment, the pots are placed in a greenhouse and kept under good growth conditions for the test plants. The visual assessment of the emergence damage on the test plants is carried out after a trial period of about 3 weeks by comparison with untreated controls (herbicidal effect in %: 100% effect=the plants have died, 0% effect=like control plants). • In addition to the compounds mentioned above, the following compounds, applied by the pre-emergence method at 320 g of a.i./ha, show an efficacy of 90% against Lolium multiflorum and Setaria viridis: I-1-a-1 • In addition to the compounds mentioned above, the following compounds, applied by the pre-emergence method at 320 g of a.i./ha, show an efficacy of 100% against Echinocloa crus-galli: I-a-2, I-b-1, I-b-2, I-c-2 2. Herbicidal Post-Emergence Action • Seeds of monocotyledonous and dicotyledonous weed and crop plants are placed in sandy loam in wood fibre pots, covered with soil and cultivated in a greenhouse under good growth conditions. 2-3 weeks after sowing, the test plants are treated at the one-leaf stage. The test compounds, formulated as wettable powders (WP), are, in various dosages at a water application rate of 600 l/ha (converted), with 0.2% of wetting agent added, sprayed onto the green parts of the plants. After the test plants have been kept in the greenhouse under optimum growth conditions for about 3 weeks, the effect of the preparations is rated visually in comparison to untreated controls (herbicidal effect in %: 100% effect=the plants have died, 0% effect=like control plants). • In addition to the compounds mentioned above, the following compounds, applied by the post-emergence method at 80 g/ha, show an efficacy of 90% against Echinocloa crus-galli and Lolium multiflorum: I-a-3, I-a-4, I-a-5.

Setaria viridis = assay: Herbicidal pre-emergence action; details: pre-emergence method, 320 g of a.i./ha; about 3 weeks
Description: as §2, §3

[2] = tested on: greenhouse red spidermite (Tetranychus urticae); assay: Tetranychus test OP-resistant (TETRUR spray treatment); details: application rate 100 g/ha, bean leaf discs, after 6 days
Method: Tetranychus Test OP-Resistant (TETRUR Spray Treatment)
Solvents: 78.0 parts by weight of acetone
as §1
To produce a suitable preparation of active compound, 1 part by weight of active compound is mixed with the stated amounts of solvents and emulsifier, and the concentrate is diluted with emulsifier-containing water to the desired concentration. Discs of bean leaves (Phaseolus vulgaris) which are infested by all stages of the greenhouse red spidermite (Tetranychus urticae) are sprayed with an active compound preparation of the desired concentration.
After 6 days, the effect in % is determined. 100% means that all spidermites have been killed; 0% means that none of the spidermites have been killed.

Echinocloa crus-galli = assay: Herbicidal pre-emergence action; details: pre-emergence method, 320 g of a.i./ha; about 3 weeks
Description: as §2, §3

Row | SMILES | efficacy (effect in %, aphids killed) [1] [%] | efficacy (kill in %) (Lucilia cuprina larva) [%] | efficacy (herbicidal effect in %) (Lolium multiflorum) [%] | efficacy (herbicidal effect in %) (Setaria viridis) [%] | efficacy (effect in %, spidermites killed) [2] [%] | efficacy (herbicidal effect in %) (Echinocloa crus-galli) [%]
1 | CON1CCC2(CC1)NC(=O)C(c1c(C)ccc(-c3ccc(F)cc3)c1C)=C2O [I-a-1] | 90 | 90 | 90 | 90 | – | –
2 | CCON1CCC2(CC1)NC(=O)C(c1c(C)ccc(-c3ccc(F)cc3)c1C)=C2O [I-a-2] | 100 | 90 | – | – | 100 | 100

From patent publication US9809542B2, “Spiroheterocyclically substituted tetramic acid derivatives” (BAYER INTELLECTUAL PROPERTY GMBH, priority 2010, dated 2017)
